Marks after values point to notes of the source that are not given here.
Legend:
THC dependent mice = assay: Precipitated withdrawal in mice chronically treated with THC; assay type: in vivo; conditions: mouse, in vivo
Method: The chronic THC regimen (20 mg/kg, twice a day) used in these experiments has been chosen because it mimics heavy marijuana use (Cook et al., 1998) and is considered as a model of cannabinoids dependence in mice (Cutando et al., 2013; Hutcheson et al., 1998). […] From day 1 to 4-5, mice were injected ip with vehicle or THC (20 mg/kg in NaCl 0.9% containing 2% ethanol and 2% Tween80, 10 ml/kg) twice a day. […] All the other animals received the administration of the respective vehicle. […] The dose and schedule of administration of rimonabant chosen for this study has been commonly used to precipitate THC withdrawal in mice (Cook et al. 1998, Hutcheson et al., 1998, Huang et al., 2009).
For the measure of precipitated withdrawal, mice were placed in a novel home cage and a video camera positioned in front of each cage recorded animals' behaviors. Scoring was performed for 1 minute every 5 min-period. Two withdrawal signs were analyzed: paw tremors and head shaking, since they are the most common signs of THC withdrawal observed in mice (Cook et al. 1998, Hutcheson et al., 1998, Lichtman et al., 2001).

[1] = test system: diet-induced obese (DIO) mouse model; assay: Repeated treatment: food intake and body weight in diet-induced obese (DIO) mice; assay type: in vivo; conditions: vs vehicle; Rimo 10 mg/kg ip; 3pMBP 0.005-15 mg/kg per os
[2] = test system: anxiety- and depression-related behaviors in mice; assay: Repeated administration: anxiety- and depression-related behaviors (elevated plus maze, sucrose preference test); assay type: in vivo; conditions: for Increase in anxiety and depression related behaviors (repeated administration): Effect (Rimonabant): 28 days, 10 mg/kg
Method: The EPM apparatus was made of four elevated arms arranged in a cross-like disposition, with two opposite arms being enclosed by walls and the two other arms being open. For all the experiments, after receiving the appropriate treatment mice were placed in the center of the EPM and let free to explore the maze for 5 minutes. The time spent and the number of entries into the open arms and closed arms were measured by an automatic videotracking system. A decrease in the percentages of visits and/or of the time spent in open arms is considered an index of increase in anxiety levels.
The sucrose preference test was performed in the home cage of the mice. Two identical bottles, one containing water and the other one containing a 2%-sucrose solution were placed in the hopper of each home cage. […] The volumes of water and of sucrose solutions drank by the mice were measured over two 1.30 h intervals, the first between 7.00 pm and 8.30 pm and the second between 8.30 pm and 10.00 pm. At each time point, the bottles were weighed and the intake volume was calculated by subtracting the initial bottle weight to the final bottle weight.
At day 26, mice were subjected to the EPM and at day 28 to the sucrose preference test.

corticosterone = conditions: from Steiner et al., 2008, cited from earlier work
[3] = test system: diet-induced obese (DIO) mouse model; assay: Repeated treatment: food intake and body weight in diet-induced obese (DIO) mice; assay type: in vivo; conditions: for Inhibition of food-intake and body weight (repeated administration): Effect (Rimonabant): 10 mg/kg
Method: Male C57BL/6J mice were fed ad libitum with a high-fat diet (HFD) for 8 weeks before the start of the pharmacological treatments. During pharmacological treatments, the HFD was maintained and food intake and body weight were measured daily. The food consumed was calculated by subtracting the food left in the hoppers from the initial pre-weighted amount. […] 3pMBP and rimonabant were administered by oral gavage once a day, two hours before the start of the dark phase of the light/dark cycle.

[4] = at doses quite close to the therapeutic dose; cited from earlier work
[5] = Metabolic profiling of [3H]-3pMBP in plasma and excreta in the rat (Radio-HPLC); conditions: in vivo
Method: The metabolic profile was evaluated in plasma, in urines and feces and the radio-labelled metabolites were identified by their retention time using Radio-HPLC analysis. The results are expressed as % of the sum of all the detected peak areas.

[6] = test system: central benzodiazepine receptor; assay: Binding selectivity, ligand displacement; conditions: 10 μM
Description: (§1) The CEREP High-throughput profile consists of a broad collection of 80 transmembrane and soluble receptors, ion channels and G-Protein coupled receptors.

[7] = target: T1, peripheral benzodiazepine receptor (Rattus norvegicus, UniProt P16257); assay: Binding selectivity, ligand displacement; conditions: 10 μM
T1 construct: CEREP
Description: as §1

progesterone receptor = target: T2, progesterone receptor (Homo sapiens, UniProt P06401); assay: Binding selectivity, ligand displacement; conditions: 10 μM
T2 construct: CEREP
T2 sequence (P06401 whole entry): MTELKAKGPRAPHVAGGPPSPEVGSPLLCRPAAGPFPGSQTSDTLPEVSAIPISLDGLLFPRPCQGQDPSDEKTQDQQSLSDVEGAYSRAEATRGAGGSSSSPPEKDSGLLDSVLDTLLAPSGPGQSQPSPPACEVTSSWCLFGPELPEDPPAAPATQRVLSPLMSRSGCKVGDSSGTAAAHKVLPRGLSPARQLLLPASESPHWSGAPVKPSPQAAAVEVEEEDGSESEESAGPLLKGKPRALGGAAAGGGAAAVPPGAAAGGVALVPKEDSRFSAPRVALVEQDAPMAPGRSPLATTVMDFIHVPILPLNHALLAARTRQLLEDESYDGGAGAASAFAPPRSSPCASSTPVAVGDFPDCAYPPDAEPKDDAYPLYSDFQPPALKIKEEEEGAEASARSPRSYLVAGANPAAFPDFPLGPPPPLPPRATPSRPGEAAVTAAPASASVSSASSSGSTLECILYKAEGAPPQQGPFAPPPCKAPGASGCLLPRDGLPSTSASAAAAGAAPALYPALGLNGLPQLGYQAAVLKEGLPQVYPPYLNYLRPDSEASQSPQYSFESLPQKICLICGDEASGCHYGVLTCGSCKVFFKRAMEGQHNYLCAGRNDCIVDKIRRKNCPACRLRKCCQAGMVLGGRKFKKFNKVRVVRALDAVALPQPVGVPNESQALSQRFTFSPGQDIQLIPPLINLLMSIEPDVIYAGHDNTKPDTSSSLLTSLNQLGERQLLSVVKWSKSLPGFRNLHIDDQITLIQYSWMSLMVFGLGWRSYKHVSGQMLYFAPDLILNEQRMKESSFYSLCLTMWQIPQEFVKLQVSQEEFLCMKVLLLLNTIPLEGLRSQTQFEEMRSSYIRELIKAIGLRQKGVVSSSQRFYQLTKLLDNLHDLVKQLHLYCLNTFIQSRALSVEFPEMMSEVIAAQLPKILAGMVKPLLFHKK
Description: as §1

[8] = 28 days once a day, 3pMBP 0.05, 5, 15 mg/kg per os, Rimo 10 mg/kg ip
[9] = male mice, listed as rimonabant
[10] = vs reference ID100 for rimonabant effects = 10 mg/kg

SMILES: Cc1c(C(=O)NN2CCCCC2)nn(-c2ccc(Cl)cc2Cl)c1-c1ccc(Cl)cc1 [Rimonabant, rimonabant]
- IC100 (THC dependent mice): 10 mg/kg
- Body weight in obese mice [1]: decreases body weight
- Percentage of time spent in the open arms of the elevated plus maze [2, 8]: decreases the time spent in open arms
- Percentage of visits in the open arms of the elevated plus maze [2, 8]: decreases the percentage of visits in open arms
- Sucrose intake (sucrose preference test) [2, 8]: decreases sucrose intake
- IC100 ([2]; Rimonabant, male mice): 10 mg/kg
- Increase in anxiety and depression related behaviors (repeated administration): Effect (Rimonabant) ([2]; male mice): Yes
- Increase in anxiety and depression related behaviors (repeated administration): Effect (Rimonabant) [2, 9]: increased anxiety and depression-related behavior
- N fold IC100 [2, 10]: 1
- IC100 (corticosterone; Rimonabant): 2 mg/kg
- Increase in glucocorticoid secretion: Effect (Rimonabant) (corticosterone; mice): Yes
- N fold IC100 (corticosterone; vs reference ID100 for rimonabant = 10 mg/kg): 0.2^#
- IC100 ([3]; Rimonabant, male mice): 10 mg/kg
- Inhibition of food-intake and body weight (repeated administration): Effect (Rimonabant) ([3]; male mice): Yes
- Inhibition of food-intake and body weight (repeated administration): Effect (Rimonabant) [3, 9]: decreased both food intake and body weight
- N fold IC100 [3, 10]: 1
- Food intake in obese mice ([3]; vs vehicle, Rimo 10 mg/kg ip, 3pMBP 0.005-15 mg/kg per os): decreases food intake
- Adverse events in GLP safety and toxicity studies [4]: clonic convulsion, hepatotoxicity and several profound alterations in behavior

SMILES: COc1ccc(CO[C@H]2CC[C@@]3(C)C(=CC[C@H]4[C@@H]5CC[C@H](C(C)=O)[C@@]5(C)CC[C@@H]43)C2)cc1 [[^3H]-3pMBP]
- Major metabolites in plasma [5]: does not produce any major metabolites in plasma

SMILES: CC(=O)[C@H]1CC[C@H]2[C@@H]3CC=C4C[C@@H](O)CC[C@]4(C)[C@H]3CC[C@]12C [pregnenolone]
- displacement of binding [6]: > 40%
- displacement of binding [7]: > 40%
- displacement of binding (progesterone receptor): > 80%

Reference: patent publication US12447159B2 (AELIS FARMA, priority 2018, dated 2025)
